Results as given in patent publication US6825170B2, “6-O-acyl ketolide antibacterials” (Ortho-McNeil Pharmaceutical, Inc., priority 2001, dated 2004).
Values after ≈ are worked out from the molar mass of the structure shown.

What was measured:
Assay in all cases: MIC, microdilution broth method (NCCLS)
Format in all cases: cell-based
Settings in all cases: 35° C., 16-20 hours
E. faecalis ATCC29212 = test system: E. faecalis ATCC29212
How it was run: (§1)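 NCCLS microdilution method in cation-adjusted Mueller-Hinton broth, serial two-fold dilutions, final inoculum approximately 5×10^4 CFU/well. MIC read after 16-20 hours' incubation at 35° C.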

H. influenzae ATCC49247 = test system: H. influenzae ATCC49247
How it was run: as §1

S. aureus ATCC29213 = test system: S. aureus ATCC29213
How it was run: as §1

S. pneumoniae ATCC49619 = test system: S. pneumoniae ATCC49619
How it was run: as §1

| SMILES | MIC (C: E. faecalis ATCC29212) (E. faecalis ATCC29212) | MIC (E: H. influenzae ATCC49247) (H. influenzae ATCC49247) | MIC (B: S. aureus ATCC29213) (S. aureus ATCC29213) | MIC (D: S. pneumoniae ATCC49619) (S. pneumoniae ATCC49619) |
| --- | --- | --- | --- | --- |
| CC[C@H]1OC(=O)[C@H](C)C(=O)[C@H](C)[C@@H](O[C@@H]2O[C@H](C)C[C@H](N(C)C)[C@H]2O)[C@](C)(OC(=O)N(C)NCCc2ccc(-c3cnccn3)cc2)C[C@@H](C)C(=O)[C@H](C)[C@H]2NC(=O)O[C@@]21C [Compound 820] | 0.25 µg/mL (≈ 0.293 µM) | 8 µg/mL (≈ 9.38 µM) | 1 µg/mL (≈ 1.17 µM) | 0.06 µg/mL (≈ 0.0703 µM) |
| CC[C@H]1OC(=O)[C@H](C)C(=O)[C@H](C)[C@@H](O[C@@H]2O[C@H](C)C[C@H](N(C)C)[C@H]2O)[C@](C)(OC(=O)N(C)N(C)CCc2ccc(-c3cnccn3)cc2)C[C@@H](C)C(=O)[C@H](C)[C@H]2NC(=O)O[C@@]21C [Compound 821] | 0.5 µg/mL (≈ 0.577 µM) | 16 µg/mL (≈ 18.5 µM) | 2 µg/mL (≈ 2.31 µM) | 0.12 µg/mL (≈ 0.138 µM) |
| CC[C@H]1OC(=O)[C@H](C)C(=O)[C@H](C)[C@@H](O[C@@H]2O[C@H](C)C[C@H](N(C)C)[C@H]2O)[C@](C)(OC(=O)Nn2ccc(-c3ccc(-c4ncccn4)cc3)c2)C[C@@H](C)C(=O)[C@H](C)[C@H]2NC(=O)O[C@@]21C [Compound 824] | 1 µg/mL (≈ 1.16 µM) | 16 µg/mL (≈ 18.6 µM) | 2 µg/mL (≈ 2.32 µM) | 0.12 µg/mL (≈ 0.139 µM) |
| CC[C@H]1OC(=O)[C@H](C)C(=O)[C@H](C)[C@@H](O[C@@H]2O[C@H](C)C[C@H](N(C)C)[C@H]2O)[C@](C)(OC(=O)NN=Cc2ccc(-c3ncccn3)cc2)C[C@@H](C)C(=O)[C@H](C)[C@H]2NC(=O)O[C@@]21C [Compound 825] | 0.5 µg/mL (≈ 0.608 µM) | 16 µg/mL (≈ 19.4 µM) | 4 µg/mL (≈ 4.86 µM) | 0.12 µg/mL (≈ 0.146 µM) |
| CC[C@H]1OC(=O)[C@H](C)C(=O)[C@H](C)[C@@H](O[C@@H]2O[C@H](C)C[C@H](N(C)C)[C@H]2O)[C@](C)(OC(=O)NN=CCc2ccc(-c3ncccn3)cc2)C[C@@H](C)C(=O)[C@H](C)[C@H]2NC(=O)O[C@@]21C [Compound 826] | 2 µg/mL (≈ 2.39 µM) | 8 µg/mL (≈ 9.56 µM) | 8 µg/mL (≈ 9.56 µM) | 0.25 µg/mL (≈ 0.299 µM) |
| CC[C@H]1OC(=O)[C@H](C)C(=O)[C@H](C)[C@@H](O[C@@H]2O[C@H](C)C[C@H](N(C)C)[C@H]2O)[C@](C)(OC(=O)NN=C/C=C/c2ccc(-c3ncccn3)cc2)C[C@@H](C)C(=O)[C@H](C)[C@H]2NC(=O)O[C@@]21C [Compound 827] | 1 µg/mL (≈ 1.18 µM) | 8 µg/mL (≈ 9.42 µM) | 1 µg/mL (≈ 1.18 µM) | 0.12 µg/mL (≈ 0.141 µM) |
| CC[C@H]1OC(=O)[C@H](C)C(=O)[C@H](C)[C@@H](O[C@@H]2O[C@H](C)C[C@H](N(C)C)[C@H]2O)[C@](C)(OC(=O)SC/C=C/c2ccccc2)C[C@@H](C)C(=O)[C@H](C)[C@H]2NC(=O)O[C@@]21C [Compound 830] | 0.5 µg/mL (≈ 0.645 µM) | 4 µg/mL (≈ 5.16 µM) | 1 µg/mL (≈ 1.29 µM) | 0.12 µg/mL (≈ 0.155 µM) |
| CC[C@H]1OC(=O)[C@H](C)C(=O)[C@H](C)[C@@H](O[C@@H]2O[C@H](C)C[C@H](N(C)C)[C@H]2O)[C@](C)(OC(=O)SCc2ccccc2)C[C@@H](C)C(=O)[C@H](C)[C@H]2NC(=O)O[C@@]21C [Compound 831] | 0.25 µg/mL (≈ 0.334 µM) | 8 µg/mL (≈ 10.7 µM) | 2 µg/mL (≈ 2.67 µM) | 0.06 µg/mL (≈ 0.0801 µM) |
| C=CCSC(=O)O[C@]1(C)C[C@@H](C)C(=O)[C@H](C)[C@H]2NC(=O)O[C@]2(C)[C@@H](CC)OC(=O)[C@H](C)C(=O)[C@H](C)[C@H]1O[C@@H]1O[C@H](C)C[C@H](N(C)C)[C@H]1O [Compound 832] | 0.5 µg/mL (≈ 0.715 µM) | 8 µg/mL (≈ 11.4 µM) | 4 µg/mL (≈ 5.72 µM) | 0.25 µg/mL (≈ 0.358 µM) |
| CC[C@H]1OC(=O)[C@H](C)C(=O)[C@H](C)[C@@H](O[C@@H]2O[C@H](C)C[C@H](N(C)C)[C@H]2O)[C@](C)(OC(=O)SC/C=C/c2ccc(-c3ncccn3)cc2)C[C@@H](C)C(=O)[C@H](C)[C@H]2NC(=O)O[C@@]21C [Compound 833] | 0.25 µg/mL (≈ 0.293 µM) | 16 µg/mL (≈ 18.8 µM) | 0.5 µg/mL (≈ 0.586 µM) | 0.06 µg/mL (≈ 0.0703 µM) |
| CC[C@H]1OC(=O)[C@H](C)C(=O)[C@H](C)[C@@H](O[C@@H]2O[C@H](C)C[C@H](N(C)C)[C@H]2O)[C@](C)(OC(=O)SCc2ccc(-c3ncccn3)cc2)C[C@@H](C)C(=O)[C@H](C)[C@H]2NC(=O)O[C@@]21C [Compound 834] | 0.12 µg/mL (≈ 0.145 µM) | 8 µg/mL (≈ 9.67 µM) | 0.5 µg/mL (≈ 0.605 µM) | <0.015 µg/mL |
| CC[C@H]1OC(=O)[C@H](C)C(=O)[C@H](C)[C@@H](O[C@@H]2O[C@H](C)C[C@H](N(C)C)[C@H]2O)[C@](C)(OC(=O)SCCc2ccc(-c3ncccn3)cc2)C[C@@H](C)C(=O)[C@H](C)[C@H]2NC(=O)O[C@@]21C [Compound 835] | 0.12 µg/mL (≈ 0.143 µM) | 4 µg/mL (≈ 4.76 µM) | 0.5 µg/mL (≈ 0.595 µM) | 0.03 µg/mL (≈ 0.0357 µM) |
| CC[C@H]1OC(=O)[C@H](C)C(=O)[C@H](C)[C@@H](O[C@@H]2O[C@H](C)C[C@H](N(C)C)[C@H]2O)[C@](C)(OC(=O)SCCc2ccc(-n3cncn3)cc2)C[C@@H](C)C(=O)[C@H](C)[C@H]2NC(=O)O[C@@]21C [Compound 836] | 0.12 µg/mL (≈ 0.145 µM) | 1 µg/mL (≈ 1.2 µM) | 0.25 µg/mL (≈ 0.301 µM) | 0.03 µg/mL (≈ 0.0361 µM) |
| CC[C@H]1OC(=O)[C@H](C)C(=O)[C@H](C)[C@@H](O[C@@H]2O[C@H](C)C[C@H](N(C)C)[C@H]2O)[C@](C)(OC(=O)SC/C=C/c2cnc3ccccc3c2)C[C@@H](C)C(=O)[C@H](C)[C@H]2NC(=O)O[C@@]21C [Compound 837] | 0.25 µg/mL (≈ 0.303 µM) | 8 µg/mL (≈ 9.68 µM) | 2 µg/mL (≈ 2.42 µM) | 0.12 µg/mL (≈ 0.145 µM) |
| CC[C@H]1OC(=O)[C@H](C)C(=O)[C@H](C)[C@@H](O[C@@H]2O[C@H](C)C[C@H](N(C)C)[C@H]2O)[C@](C)(OC(=O)SCc2cnc3ccccc3c2)C[C@@H](C)C(=O)[C@H](C)[C@H]2NC(=O)O[C@@]21C [Compound 838] | 0.12 µg/mL (≈ 0.15 µM) | 1 µg/mL (≈ 1.25 µM) | 0.25 µg/mL (≈ 0.313 µM) | 0.06 µg/mL (≈ 0.075 µM) |
| CC[C@H]1OC(=O)[C@H](C)C(=O)[C@H](C)[C@@H](O[C@@H]2O[C@H](C)C[C@H](N(C)C)[C@H]2O)[C@](C)(OC(=O)SCc2ccc(-c3ccccn3)s2)C[C@@H](C)C(=O)[C@H](C)[C@H]2NC(=O)O[C@@]21C [Compound 839] | 0.12 µg/mL (≈ 0.144 µM) | 2 µg/mL (≈ 2.4 µM) | 1 µg/mL (≈ 1.2 µM) | 0.06 µg/mL (≈ 0.0721 µM) |
| CC[C@H]1OC(=O)[C@H](C)C(=O)[C@H](C)[C@@H](O[C@@H]2O[C@H](C)C[C@H](N(C)C)[C@H]2O)[C@](C)(OC(=O)SCc2ccc(-n3cncn3)cc2)C[C@@H](C)C(=O)[C@H](C)[C@H]2NC(=O)O[C@@]21C [Compound 840] | 0.12 µg/mL (≈ 0.147 µM) | 2 µg/mL (≈ 2.45 µM) | 0.5 µg/mL (≈ 0.613 µM) | 0.06 µg/mL (≈ 0.0735 µM) |
| CC[C@H]1OC(=O)[C@H](C)C(=O)[C@H](C)[C@@H](O[C@@H]2O[C@H](C)C[C@H](N(C)C)[C@H]2O)[C@](C)(OC(=O)SCc2cn(-c3ncccn3)cn2)C[C@@H](C)C(=O)[C@H](C)[C@H]2NC(=O)O[C@@]21C [Compound 841] | 0.12 µg/mL (≈ 0.147 µM) | 2 µg/mL (≈ 2.45 µM) | 0.5 µg/mL (≈ 0.612 µM) | 0.03 µg/mL (≈ 0.0367 µM) |
| CC[C@H]1OC(=O)[C@H](C)C(=O)[C@H](C)[C@@H](O[C@@H]2O[C@H](C)C[C@H](N(C)C)[C@H]2O)[C@](C)(OC(=O)Cc2ccccc2)C[C@@H](C)C(=O)[C@H](C)[C@H]2NC(=O)O[C@@]21C [Compound 843] | 2 µg/mL (≈ 2.79 µM) | 16 µg/mL (≈ 22.3 µM) | 8 µg/mL (≈ 11.2 µM) | 0.5 µg/mL (≈ 0.697 µM) |
| CC[C@H]1OC(=O)[C@H](C)C(=O)[C@H](C)[C@@H](O[C@@H]2O[C@H](C)C[C@H](N(C)C)[C@H]2O)[C@](C)(OC(=O)CCCc2ccccc2)C[C@@H](C)C(=O)[C@H](C)[C@H]2NC(=O)O[C@@]21C [Compound 844] | 0.12 µg/mL (≈ 0.161 µM) | 4 µg/mL (≈ 5.37 µM) | 0.5 µg/mL (≈ 0.671 µM) | 0.03 µg/mL (≈ 0.0403 µM) |
